Measurements: ChEMBL document CHEMBL1201862, “PubChem BioAssay data set” (2004)
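Each compound was tested at five concentrations against cells in 96-well plates for 48 hours. The concentration for 50% growth inhibition is given as GI50.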 Active and inactive are the calls of the source. No stated cut-off is given here; in the data, active = GI50 up to about 1.1 µM and inactive = higher.

Legend:
Experiment in all cases: NCI tumour cell line growth inhibition, 48 h
A549 = tested on: A549
ACHN = tested on: ACHN
CCRF-CEM = tested on: CCRF-CEM
HT-29 = tested on: HT-29
Hs-578T = tested on: Hs-578T
K562 = tested on: K562
LOX IMVI = tested on: LOX IMVI
MOLT-4 = tested on: MOLT-4
Malme-3M = tested on: Malme-3M
NCI-H23 = tested on: NCI-H23
OVCAR-3 = tested on: OVCAR-3
OVCAR-4 = tested on: OVCAR-4
OVCAR-5 = tested on: OVCAR-5
SF-268 = tested on: SF-268
SF-295 = tested on: SF-295
SK-OV-3 = tested on: SK-OV-3
UACC-257 = tested on: UACC-257
T47D = tested on: T47D

Measured: GI50

CC(C)(C)/N=c1/n(C(C)(C)C)oc(=O)n1-c1ccccc1
inactive: A549 > 50 µM | ACHN > 50 µM | CCRF-CEM > 50 µM | HT-29 > 50 µM | Hs-578T > 50 µM | K562 > 50 µM | LOX IMVI > 50 µM | MOLT-4 > 50 µM | Malme-3M > 50 µM | NCI-H23 > 50 µM | OVCAR-3 > 50 µM | OVCAR-4 > 50 µM | OVCAR-5 > 50 µM | SF-268 > 50 µM | SF-295 > 50 µM | SK-OV-3 > 50 µM | UACC-257 > 50 µM

COc1ccc(NC(=O)CC(=O)N2N=C(C)C(/N=N/c3ccc(C(=O)O)cc3)C2=O)cc1 (centres undefined)
inactive: A549 > 100 µM | ACHN > 100 µM | CCRF-CEM > 100 µM | HT-29 > 100 µM | Hs-578T > 100 µM | K562 > 100 µM | LOX IMVI 94 µM | Malme-3M > 100 µM | NCI-H23 > 100 µM | OVCAR-3 > 100 µM | OVCAR-4 > 100 µM | OVCAR-5 > 100 µM | SF-268 > 100 µM | SF-295 > 100 µM | T47D > 100 µM | UACC-257 > 100 µM

OC1C2C=CCC1CCC2 (centres undefined)
inactive: A549 > 100 µM | ACHN > 100 µM | CCRF-CEM > 100 µM | HT-29 > 100 µM | K562 > 100 µM | LOX IMVI > 100 µM | MOLT-4 > 100 µM | Malme-3M > 100 µM | NCI-H23 > 100 µM | OVCAR-3 > 100 µM | OVCAR-4 > 100 µM | OVCAR-5 > 100 µM | SF-268 > 100 µM | SF-295 > 100 µM | SK-OV-3 > 100 µM | UACC-257 > 100 µM

FC1(F)[Se]C2C3CCC(C3)C2C1(F)F (centres undefined)
inactive: A549 > 100 µM | ACHN > 100 µM | Hs-578T > 100 µM | LOX IMVI > 100 µM | MOLT-4 > 100 µM | Malme-3M > 100 µM | OVCAR-3 > 100 µM | OVCAR-4 > 100 µM | OVCAR-5 > 100 µM | SF-268 > 100 µM | SF-295 35.2 µM | SK-OV-3 > 100 µM | T47D > 100 µM

O=C1NCC2(CCNCC2)N1c1ccccc1
inactive: A549 > 100 µM | ACHN > 100 µM | CCRF-CEM > 100 µM | HT-29 > 100 µM | Hs-578T > 100 µM | K562 > 100 µM | LOX IMVI > 100 µM | MOLT-4 > 100 µM | Malme-3M > 100 µM | NCI-H23 > 100 µM | OVCAR-3 > 100 µM | OVCAR-4 > 100 µM | OVCAR-5 > 100 µM | SF-268 > 100 µM | SF-295 > 100 µM | T47D > 100 µM | UACC-257 > 100 µM
